Measurements published in ChEMBL document CHEMBL1201862, “PubChem BioAssay data set” (2004).
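Results reflect a 48-hour exposure of cells in 96-well plates to compound at five concentrations. At the GI50, growth is halved.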 The source made the active and inactive calls. No stated cut-off is given here; in the data, active = GI50 up to about 1.1 µM and inactive = higher.

How the values were obtained:
Assay in all cases: NCI anticancer screen, dose series, 48 h
TK-10 = system: TK-10
OVCAR-3 = system: OVCAR-3
UACC-257 = system: UACC-257
HOP-62 = system: HOP-62
UACC-62 = system: UACC-62
Hs-578T = system: Hs-578T
IGROV-1 = system: IGROV-1
KM12 = system: KM12
MDA-MB-231 = system: MDA-MB-231
U-251 = system: U-251
HCT-116 = system: HCT-116
SF-268 = system: SF-268
SF-295 = system: SF-295
SF-539 = system: SF-539

C=C1C[C@@H]2CC[C@@]34CC5O[C@H]6C(O[C@H]7CC[C@H](CC(=O)O[C@@H]8[C@@H](C)[C@@H]9O[C@@H]%10C[C@]%11(C[C@@H]%12O[C@]%13(C[C@H](C)[C@@H]%14O[C@@H]%15CC(C(COC(C)=O)OC(C)=O)O[C@@H]%15C[C@@H]%14O%13)C[C@H](C)[C@@H]%12O%11)O[C@@H]%10C[C@@H]9O[C@H]8CC8O[C@@H](CC[C@@H]1O2)C[C@@H](C)C8(O)CO)O[C@@H]7[C@@H]6O3)[C@H]5O4 (some centres undefined)
GI50 (TK-10): > 0.36 µM (active)
GI50 (OVCAR-3): 0.431 µM (active)
GI50 (UACC-257): 0.0716 µM (active)
GI50 (HOP-62): > 1 µM (active)
GI50 (UACC-62): 0.242 µM (active)
GI50 (Hs-578T): 0.272 µM (active)
GI50 (IGROV-1): 0.371 µM (active)
GI50 (KM12): 0.327 µM (active)
GI50 (MDA-MB-231): > 0.776 µM (active)
GI50 (U-251): 0.436 µM (active)
GI50 (HCT-116): 0.292 µM (active)
GI50 (SF-268): 0.455 µM (active)
GI50 (SF-295): 0.297 µM (active)

CC1(C)OCC=CCO1
GI50 (TK-10): > 100 µM (inactive)
GI50 (OVCAR-3): 59.7 µM (inactive)
GI50 (UACC-257): > 100 µM (inactive)
GI50 (HOP-62): > 100 µM (inactive)
GI50 (SF-539): 67.8 µM (inactive)
GI50 (UACC-62): > 100 µM (inactive)
GI50 (Hs-578T): > 100 µM (inactive)
GI50 (IGROV-1): > 100 µM (inactive)
GI50 (KM12): > 100 µM (inactive)
GI50 (U-251): > 100 µM (inactive)
GI50 (HCT-116): > 100 µM (inactive)
GI50 (SF-268): > 100 µM (inactive)
GI50 (SF-295): > 100 µM (inactive)

COC(=O)C(CCCCNC(=O)CNC(=O)OCc1ccccc1)NC(=O)C(CCCCNC(=O)CNC(=O)OCc1ccccc1)NC(=O)OCc1ccccc1 (centres undefined)
GI50 (TK-10): > 100 µM (inactive)
GI50 (OVCAR-3): 53.3 µM (inactive)
GI50 (UACC-257): > 100 µM (inactive)
GI50 (HOP-62): > 100 µM (inactive)
GI50 (UACC-62): 40 µM (inactive)
GI50 (IGROV-1): > 10 µM (inactive)
GI50 (MDA-MB-231): > 100 µM (inactive)
GI50 (U-251): 54 µM (inactive)
GI50 (HCT-116): 84.7 µM (inactive)
GI50 (SF-268): 78 µM (inactive)

CC(C)n1c(=O)n(-c2ccccc2)n(C(C)(C)C)c1=O
GI50 (TK-10): > 100 µM (inactive)
GI50 (OVCAR-3): > 100 µM (inactive)
GI50 (UACC-257): > 100 µM (inactive)
GI50 (HOP-62): > 100 µM (inactive)
GI50 (SF-539): > 100 µM (inactive)
GI50 (UACC-62): > 100 µM (inactive)
GI50 (Hs-578T): > 100 µM (inactive)
GI50 (IGROV-1): > 100 µM (inactive)
GI50 (KM12): > 100 µM (inactive)
GI50 (MDA-MB-231): > 100 µM (inactive)
GI50 (U-251): > 100 µM (inactive)
GI50 (HCT-116): > 100 µM (inactive)
GI50 (SF-295): > 100 µM (inactive)

CC(C)(C)OC(=O)NCCC(=O)NC1(c2cc3ccccc3s2)CCCCC1
GI50 (TK-10): 29 µM (inactive)
GI50 (OVCAR-3): 15.6 µM (inactive)
GI50 (UACC-257): 19.1 µM (inactive)
GI50 (HOP-62): 18.4 µM (inactive)
GI50 (SF-539): 15 µM (inactive)
GI50 (UACC-62): 20.6 µM (inactive)
GI50 (Hs-578T): 28.1 µM (inactive)
GI50 (IGROV-1): 17.3 µM (inactive)
GI50 (KM12): 18.7 µM (inactive)
GI50 (MDA-MB-231): 19.1 µM (inactive)
GI50 (U-251): 19.3 µM (inactive)
GI50 (HCT-116): 13.9 µM (inactive)
GI50 (SF-295): 18.4 µM (inactive)

O=C1NC2NC3NC(=O)NC3NC2N1 (centres undefined)
GI50 (OVCAR-3): > 100 µM (inactive)
GI50 (UACC-257): > 100 µM (inactive)
GI50 (HOP-62): > 100 µM (inactive)
GI50 (SF-539): > 100 µM (inactive)
GI50 (UACC-62): > 100 µM (inactive)
GI50 (IGROV-1): > 100 µM (inactive)
GI50 (KM12): > 100 µM (inactive)
GI50 (MDA-MB-231): > 100 µM (inactive)
GI50 (U-251): > 100 µM (inactive)
GI50 (HCT-116): > 100 µM (inactive)
GI50 (SF-295): > 100 µM (inactive)

COC(=O)/C(C#N)=C(\N)c1c(C)c2ccccc2oc1=N
GI50 (TK-10): > 100 µM (inactive)
GI50 (OVCAR-3): > 100 µM (inactive)
GI50 (UACC-257): > 100 µM (inactive)
GI50 (HOP-62): > 100 µM (inactive)
GI50 (SF-539): > 100 µM (inactive)
GI50 (UACC-62): > 100 µM (inactive)
GI50 (Hs-578T): > 100 µM (inactive)
GI50 (IGROV-1): > 100 µM (inactive)
GI50 (KM12): > 100 µM (inactive)
GI50 (MDA-MB-231): 86.7 µM (inactive)
GI50 (U-251): > 100 µM (inactive)
GI50 (HCT-116): > 100 µM (inactive)
GI50 (SF-295): > 100 µM (inactive)

O=C1OCc2c1cc1cc3c(cc1c2-c1ccc2c(c1)OCO2)OCO3.O=C1OCc2cc3cc4c(cc3c(-c3ccc5c(c3)OCO5)c21)OCO4
GI50 (TK-10): 14.4 µM (inactive)
GI50 (OVCAR-3): 4 µM (inactive)
GI50 (UACC-257): 25.5 µM (inactive)
GI50 (HOP-62): 6.31 µM (inactive)
GI50 (UACC-62): 8.55 µM (inactive)
GI50 (Hs-578T): 14.5 µM (inactive)
GI50 (IGROV-1): 8.55 µM (inactive)
GI50 (KM12): 11.1 µM (inactive)
GI50 (MDA-MB-231): 2.12 µM (inactive)
GI50 (U-251): 13.2 µM (inactive)
GI50 (HCT-116): 2.76 µM (inactive)
GI50 (SF-295): 2.41 µM (inactive)

COc1cc(/C=C2\C[C@H]3[C@@H]4CCc5cc(O)ccc5[C@H]4CC[C@]3(C)C2=O)cc(OC)c1OC
GI50 (TK-10): 8.81 µM (inactive)
GI50 (OVCAR-3): 11.4 µM (inactive)
GI50 (UACC-257): 10.8 µM (inactive)
GI50 (HOP-62): 12.4 µM (inactive)
GI50 (SF-539): 25.8 µM (inactive)
GI50 (UACC-62): 22.7 µM (inactive)
GI50 (IGROV-1): 15.3 µM (inactive)
GI50 (KM12): 14 µM (inactive)
GI50 (MDA-MB-231): 14.3 µM (inactive)
GI50 (U-251): 15.8 µM (inactive)
GI50 (HCT-116): 13.4 µM (inactive)
GI50 (SF-268): 8.73 µM (inactive)
GI50 (SF-295): 12.6 µM (inactive)

Cc1n[nH]c(=O)n1N=C(c1ccccc1)c1ccccc1
GI50 (TK-10): > 100 µM (inactive)
GI50 (OVCAR-3): > 100 µM (inactive)
GI50 (UACC-257): > 100 µM (inactive)
GI50 (HOP-62): > 100 µM (inactive)
GI50 (UACC-62): > 100 µM (inactive)
GI50 (Hs-578T): > 100 µM (inactive)
GI50 (IGROV-1): > 100 µM (inactive)
GI50 (KM12): > 100 µM (inactive)
GI50 (MDA-MB-231): > 100 µM (inactive)
GI50 (U-251): > 100 µM (inactive)
GI50 (HCT-116): > 100 µM (inactive)
GI50 (SF-268): > 100 µM (inactive)
GI50 (SF-295): > 100 µM (inactive)
